Patent US10307413B2, “Tetrahydro- and dihydro-isoquinoline PRMT5 inhibitors and uses thereof” (Epizyme, Inc., priority 2013, dated 2019)
Where two headings read alike, the source gives them in different places.

Columns and labels:
Z-138 cell line = experiment: Z-138 Proliferation Assay (Cell Titer Glo, 5 days); format: cell-based; conditions: Homo sapiens, 120 h, Z-138 cells, 5 days, read-out: Proliferation EC50
In short: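 Z-138 cells exposed 5 days at 37 °C, 5% CO2 to nine-point 3-fold dilutions (final top 20 μM, 0.2% DMSO), in triplicate. Viability read as ATP by CellTiter-Glo luminescence; IC50 from 4-parameter fit of normalized dose-response curves.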

[1] = system: symmetric di-methyl arginine in Z-138 cells; experiment: Z-138 Methylation Assay (In Cell Western for symmetric di-methyl arginine and DNA content); format: cell-based; conditions: Homo sapiens, read-out: ICW EC50
In short: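 Z-138 cells (50,000 cells/mL) treated with compound 96 h at 37 °C, then fixed and stained for symmetric di-methyl arginine (800 nm) with DRAQ5 DNA counterstain (700 nm) on Licor Odyssey.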

Compound | EC50 (Z-138 cell line) [µM] | EC50 [1] [µM] | EC50 (Z-138 cell line; Cell Titer Glo) [µM] | EC50 ([1]; In Cell Western methylation) [µM]
O=C(NC[C@H](O)CN1CCc2ccccc2C1)c1cc2ccccc2[nH]1 [Compound 269] | 1 to 10 | < 0.1 |  | 
Cn1ccnc1C(=O)NCC(O)CN1CCc2ccccc2C1 (stereo not shown) [Compound 171] | 1 to 10 | 0.101 to 1 |  | 
CC(=O)N1CCC(Nc2cc(C(=O)NC[C@H](O)CN3CCc4ccccc4C3)ncn2)CC1 [Compound 208, (S)-6-((1-acetylpiperidin-4-yl)amino)-N-(3-(3,4-dihydroisoquinolin-2(1H)-yl)-2-hydroxypropyl)pyrimidine-4-carboxamide] | < 0.1 | < 0.1 |  | 
CN(CCNc1cc(C(=O)NC[C@H](O)CN2CCc3ccccc3C2)ccn1)S(C)(=O)=O [Compound 262] | 0.101 to 1 | < 0.1 |  | 
O=C(NC[C@H](O)CN1CCc2ccccc2C1)c1ccc(OC2CCN(Cc3ccncc3)CC2)cc1 [Compound 331] | < 0.1 | < 0.1 |  | 
O=C(NCC(O)CN1CCc2ccccc2C1)c1ccc2nccnc2c1 (stereo not shown) [Compound 85] | 10 to 50 | 0.101 to 1 |  | 
CN(c1cc(C(=O)NC[C@H](O)CN2CCc3ccccc3C2)ccn1)C1CCC1 [Compound 333] | 0.101 to 1 | < 0.1 |  | 
O=C(NCC(O)CN1CCc2ccccc2C1)c1cccc(NC2CCNCC2)c1 (stereo not shown) [Compound 94] | 10 to 50 | 0.101 to 1 |  | 
CN1CCCC1c1cccc(C(=O)NCC(O)CN2CCc3ccccc3C2)c1 (stereo not shown) [Compound 34, N-(3-(3,4-dihydroisoquinolin-2(1H)-yl)-2-hydroxypropyl)-3-(1-methylpyrrolidin-2-yl) benzamide] | 10 to 50 | 0.101 to 1 |  | 
O=C(NCC(O)CN1CCc2ccccc2C1)c1ccc(OC2CCN(CC(F)(F)F)CC2)cc1 (stereo not shown) [Compound 109] | 0.101 to 1 | < 0.1 |  | 
CNC(=O)CNCc1cccc(C(=O)NCC(O)CN2CCc3ccccc3C2)c1 (stereo not shown) [Compound 117] | > 20 | 0.101 to 1 |  | 
CN(C)C(=O)CN1CCN(Cc2cccc(C(=O)NCC(O)CN3CCc4ccccc4C3)c2)CC1 (stereo not shown) [Compound 174] | 1 to 10 | < 0.1 |  | 
CC(=O)N1CC[C@@H](Nc2cccc(C(=O)NC[C@H](O)CN3CCc4ccccc4C3)c2)C1 [Compound 293] | < 0.1 | < 0.1 |  | 
O=C(NC[C@H](O)CN1CCc2ccccc2C1)c1ccnc(Nc2ccncc2)c1 [Compound 412] |  |  | 0.101 to 1 | < 0.1
COc1ccc2cc(C(=O)NC[C@H](O)CN3CCc4ccccc4C3)ccc2c1 [Compound 251] | 1 to 10 | < 0.1 |  | 
O=C(NC[C@H](O)CN1CCc2ccccc2C1)c1ccnc(NC2CCN(CC(F)(F)F)C2)c1 (stereo partly shown) [Compound 226] | 0.101 to 1 | < 0.1 |  | 

Compound | EC50 (Z-138 cell line) [µM] | EC50 [1] [µM] | EC50 (Z-138 cell line; Cell Titer Glo) [µM] | EC50 ([1]; In Cell Western methylation) [µM]
O=C(NCC(O)CN1CCc2ccccc2C1)c1cc(NC2CCOCC2)n[nH]1 (stereo not shown) [Compound 169] | 1 to 10 | 0.101 to 1 |  | 
O=C(NCC(O)CN1CCc2ccccc2C1)c1ccnc(NC2CCOCC2)n1 (stereo not shown) [Compound 62] | 10 to 50 | 0.101 to 1 |  | 
CS(=O)(=O)N1CC[C@H](Nc2cccc(C(=O)NC[C@H](O)CN3CCc4ccccc4C3)c2)C1 [Compound 268] | 0.101 to 1 | < 0.1 |  | 
NC(=O)CNCc1cccc(C(=O)NCC(O)CN2CCc3ccccc3C2)c1 (stereo not shown) [Compound 116] | > 20 | 0.101 to 1 |  | 
O=C1COc2cc(C(=O)NCC(O)CN3CCc4ccccc4C3)ccc2N1 (stereo not shown) [Compound 89] | > 20 | 0.101 to 1 |  | 
CC(=O)N1CCC(Oc2cccc(C(=O)NCC(O)CN3CCc4ccccc4C3)c2)C1 (stereo not shown) [Compound 136] | 1 to 10 | < 0.1 |  | 
CN1CCCC(CNc2cc(C(=O)NC[C@H](O)CN3CCc4ccccc4C3)ccn2)C1 (stereo partly shown) [Compound 264] | 1 to 10 | < 0.1 |  | 
O=C(NC[C@H](O)CN1CCc2ccccc2C1)c1cc(NC2CNC2)ncn1 [Compound 280] | 0.101 to 1 | < 0.1 |  | 
O=C(NC[C@H](O)CN1CCc2ccccc2C1)c1cccc2c1OCCO2 [Compound 249] | 10 to 50 | 0.101 to 1 |  | 
CN1CCN(Cc2cccc(C(=O)NCC(O)CN3CCc4ccccc4C3)c2)C(CO)C1 (stereo not shown) [Compound 115] | > 20 | 0.101 to 1 |  | 
O=C(NCC(O)CN1CCc2ccccc2C1)c1cccc(CO)c1 (stereo not shown) [Compound 151] | > 20 | 0.101 to 1 |  | 
O=C(NC[C@H](O)CN1CCc2ccccc2C1)c1ccc2cc(O)ccc2c1 [Compound 318] | 1 to 10 | 0.101 to 1 |  | 
O=C(NC[C@H](O)CN1CCc2ccccc2C1)c1cnc2ccccc2c1 [Compound 317] | 0.101 to 1 | < 0.1 |  | 
COc1ccc(NC2CCOCC2)cc1C(=O)NCC(O)CN1CCc2ccccc2C1 (stereo not shown) [Compound 77] | 1 to 10 | 0.101 to 1 |  | 
O=C(NC[C@H](O)CN1CCc2ccccc2C1)c1c[nH]c2ccccc12 [Compound 240] | > 20 | 0.101 to 1 |  | 
CC(C)N1CCC(Oc2cccc(C(=O)NCC(O)CN3CCc4ccccc4C3)c2)C1 (stereo not shown) [Compound 135] | 10 to 50 | < 0.1 |  | 
